Laboratory results reported in paper PMC7186840, “Chemical‐Shift Perturbations Reflect Bile Acid Binding to Norovirus Coat Protein: Recognition Comes in Different Flavors” (Chembiochem, 2019).

Columns and labels:
[1] = molecular target: T1, GII.4 Saga P dimers (Norovirus Hu/GII-4/Saga4/2006/JP, UniProt B5BTR7); assay: 1H, […] TROSY HSQC CSP titration; format: binding
T1 construct: isotope-labelled, non-deamidated

[2] = molecular target: T2, GII.4 Saga VLPs (Norovirus Hu/GII-4/Saga4/2006/JP, UniProt B5BTR7); assay: STD NMR; format: binding; details: pH 7.3, 277 K
T2 construct: virus-like particles of VP1, arginine tail present; donated by G. Hansman

[3] = molecular target: T1, GII.4 Saga P dimers; assay: 1H, […] TROSY HSQC CSP; format: binding; details: 2 mM ligand, pH 7.3, 298 K; same site as CA
[4] = molecular target: T3, GII.10 Vietnam026 VLPs (Norwalk virus, UniProt Q5F4T5); assay: STD NMR titration, single saturation time […] s; format: binding
T3 construct: virus-like particles of VP1, arginine tail present; donated by G. Hansman

[5] = molecular target: T4, GII.4 MI001 P dimers (Norovirus Hu/GII.4/MI001/2011/USA, UniProt S5FWF8); assay: 1H, […] TROSY HSQC CSP titration; format: binding
T4 construct: [U-2H,15N]-labelled

[6] = molecular target: T5, GI.1 Norwalk VLPs (Norovirus GI, UniProt A0A1S5QJB8); assay: STD NMR titration, single saturation time […] s; format: binding; details: read-out: K D app; pH 7.3, 277 K, 10 % D2O; apparent, ligand aggregation
T5 construct: virus-like particles of VP1, arginine tail present; donated by G. Hansman

[7] = molecular target: T2, GII.4 Saga VLPs; assay: STD NMR titration, single saturation time […] s; format: binding
[8] = molecular target: T6, GII.7 RKI VLPs (Norovirus Hu/GII.7/VLP 05G954/2005/DE, UniProt S5GGK6); assay: STD NMR titration, single saturation time […] s; format: binding
T6 construct: virus-like particles of VP1, arginine tail present; gift of S. Taube

[9] = molecular target: T7, GII.4 Ast6139 VLPs (Norwalk virus, UniProt Q70ET2); assay: STD NMR titration, single saturation time […] s; format: binding
T7 construct: virus-like particles of VP1, arginine tail present; donated by F. Parra

[10] = molecular target: T8, GII.17 Kawasaki308 P dimers (Norovirus Hu/GII/JP/2015/GII.P17_GII.17/Kawasaki308, UniProt A0A0E4B1P1); assay: methyl TROSY CSP titration; format: binding
T8 construct: gene VP1; MIL(ProS)V(ProS)A methyl-labelled
Description: methyl TROSY CSP titration on GII.17 Kawasaki308 P dimers

[11] = molecular target: T9, GII.17 Kawasaki308 VLPs (Norovirus Hu/GII/JP/2015/GII.P17_GII.17/Kawasaki308, UniProt A0A0E4B1P1); assay: STD NMR titration, single saturation time […] s; format: binding
T9 construct: gene VP1; virus-like particles of VP1, arginine tail present; donated by G. Hansman

[12] = molecular target: T10, GII.17 Saitama/T87 VLPs (Norovirus GII/Hu/JP/2002/GII.P16_GII.17/Saitama/T87, UniProt A0A076JB57); assay: biochemical; parameters: STD NMR titration of norovirus VLPs with cholic acid, single saturation time 2 s; apparent KD from STD-AF
T10 construct: gene VP1; virus-like particles of VP1, arginine tail present; donated by G. Hansman
Description: Samples containing VLPs were prepared at 0.41 to 1 mg mL^−1 VP1 concentration (6.9 to 17.7 μM binding sites) in PBS pH 7.3, 100 μM [D6]DSS, 0.02 % NaN3 and 10 % D2O. […] Bile acid stock solution were prepared as described above for backbone chemical shift perturbation experiments. For N373D Saga P dimers, one sample containing 45 μM P dimers, 100 μM [D6]DSS in 20 mM fully deuterated sodium phosphate buffer (pH 7.45) was prepared and titrated with CA up to a final concentration of 12 mM. […] In one set of experiments we performed titrations at single saturation times of 2 s15 (cf. Figure S5 and Table S1). Another titration experiment made use of initial STD growth rates16 determined from STD build up curves (Figure S6 and Table S2). The initial growth rates were also used to derive a binding epitope for CA (Figures 2 and S3). The apparent K D values obtained are similar, with the value resulting from initial growth rates being slightly smaller, as expected.

[13] = molecular target: T2, GII.4 Saga VLPs; assay: biochemical; parameters: STD NMR titration of norovirus VLPs with cholic acid; apparent KD from initial STD growth rates
Description: Samples containing VLPs were prepared at 0.41 to 1 mg mL^−1 VP1 concentration (6.9 to 17.7 μM binding sites) in PBS pH 7.3, 100 μM [D6]DSS, 0.02 % NaN3 and 10 % D2O. […] Bile acid stock solution were prepared as described above for backbone chemical shift perturbation experiments. For N373D Saga P dimers, one sample containing 45 μM P dimers, 100 μM [D6]DSS in 20 mM fully deuterated sodium phosphate buffer (pH 7.45) was prepared and titrated with CA up to a final concentration of 12 mM. with STD‐AFmax being the maximum STD‐AF for a given proton, k sat the saturation rate constant, and t sat the saturation time. Initial slopes STD‐AF0 were obtained from STD‐AF0=STD‐AFmax k sat, and were plotted as a function of the ligand concentration. Fitting Equation (1) to the resulting binding isotherms delivered dissociation constants K D. For curve fitting Origin2016G (OriginLab) was used. To compare P dimers to viral capsids, we also obtained STD NMR titration curves for CA binding to GII.4 Saga VLPs (Figure 3 D; Table 1, No. 5 and 6). In one set of experiments we performed titrations at single saturation times of 2 s15 (cf. Figure S5 and Table S1). Another titration experiment made use of initial STD growth rates16 determined from STD build up curves (Figure S6 and Table S2). The initial growth rates were also used to derive a binding epitope for CA (Figures 2 and S3). […]

CC1(C)[C@@H](O[C@H]2O[C@H](C(=O)O)[C@@H](O)[C@H](O)[C@H]2O[C@@H]2O[C@H](C(=O)O)[C@@H](O)[C@H](O)[C@H]2O)CC[C@]2(C)[C@H]3C(=O)C=C4[C@@H]5C[C@@](C)(C(=O)O)CC[C@]5(C)CC[C@@]4(C)[C@]3(C)CC[C@@H]12 [GR, glycyrrhizic acid]
Kd [1]: 13.8 ± 0.4 mM

C[C@H](CCC(=O)NCCS(=O)(=O)O)[C@H]1CC[C@H]2[C@@H]3[C@H](O)C[C@@H]4C[C@H](O)CC[C@]4(C)[C@H]3CC[C@]12C [TCDCA, sodium taurochenodeoxycholate]
STD NMR ([2]; 1 mM ligand in presence of GCA (1 mM)): In each case STD NMR spectra indicate binding of bile acids to VLPs

C[C@H](CCC(=O)O)[C@H]1CC[C@H]2[C@@H]3CC[C@@H]4C[C@H](O)CC[C@]4(C)[C@H]3C[C@H](O)[C@]12C [DCA, deoxycholic acid]
1H,15N TROSY HSQC CSP [3]: Binding of DCA, GCDCA, and CDCA yields very similar CSPs reflecting binding to the same site

C[C@H](CCC(=O)O)[C@H]1CC[C@H]2[C@@H]3[C@H](O)C[C@@H]4C[C@H](O)CC[C@]4(C)[C@H]3CC[C@]12C [CDCA, chenodeoxycholic acid]
1H,15N TROSY HSQC CSP [3]: Binding of DCA, GCDCA, and CDCA yields very similar CSPs reflecting binding to the same site

C[C@H](CCC(=O)O)[C@H]1CC[C@H]2[C@@H]3[C@H](O)C[C@@H]4C[C@H](O)CC[C@]4(C)[C@H]3C[C@H](O)[C@]12C [CA, cholic acid]
Kd [4]: 12.9 ± 2.9 mM | Kd [5]: 11.1 ± 0.9 mM | Kd [6]: 12.2 ± 1.8 mM | Kd [7]: 4.7 ± 0.4 mM | Kd [8]: 10.9 ± 4.3 mM | Kd [9]: 26.5 ± 8 mM | Kd [10]: 20.1 ± 2.9 mM | Kd [11]: 31.5 ± 2.8 mM | Kd [1]: 10 ± 0.6 mM | Kd [12]: 6.6 ± 0.4 mM | Kd [13]: 3.6 ± 0.7 mM

C[C@H](CCC(=O)NCC(=O)O)[C@H]1CC[C@H]2[C@@H]3[C@H](O)C[C@@H]4C[C@H](O)CC[C@]4(C)[C@H]3CC[C@]12C [GCDCA, glycochenodeoxycholic acid]
Kd [1]: 1.5 ± 0.3 mM

C[C@H](CCC(=O)NCC(=O)O)[C@H]1CC[C@H]2[C@@H]3[C@H](O)C[C@@H]4C[C@H](O)CC[C@]4(C)[C@H]3C[C@H](O)[C@]12C [GCA, sodium glycocholate hydrate]
STD NMR ([2]; 1 mM ligand in presence of TCDCA (1 mM)): In each case STD NMR spectra indicate binding of bile acids to VLPs
